Data taken from ChEMBL document CHEMBL1123484 (J Med Chem, 1986).

Columns and labels:
L1210 ( R81) = experiment: Compound was tested for its ability to inhibit growth of L1210/R81 cells; format: functional, cell-based; settings: Mus musculus
[1] = biological target: T1, Folylpolyglutamate synthase, mitochondrial (Mus musculus, UniProt P48760); experiment: Compound was tested for its ability to inhibit Folyl-polyglutamate synthase from mouse liver
T1 sequence (P48760 whole entry): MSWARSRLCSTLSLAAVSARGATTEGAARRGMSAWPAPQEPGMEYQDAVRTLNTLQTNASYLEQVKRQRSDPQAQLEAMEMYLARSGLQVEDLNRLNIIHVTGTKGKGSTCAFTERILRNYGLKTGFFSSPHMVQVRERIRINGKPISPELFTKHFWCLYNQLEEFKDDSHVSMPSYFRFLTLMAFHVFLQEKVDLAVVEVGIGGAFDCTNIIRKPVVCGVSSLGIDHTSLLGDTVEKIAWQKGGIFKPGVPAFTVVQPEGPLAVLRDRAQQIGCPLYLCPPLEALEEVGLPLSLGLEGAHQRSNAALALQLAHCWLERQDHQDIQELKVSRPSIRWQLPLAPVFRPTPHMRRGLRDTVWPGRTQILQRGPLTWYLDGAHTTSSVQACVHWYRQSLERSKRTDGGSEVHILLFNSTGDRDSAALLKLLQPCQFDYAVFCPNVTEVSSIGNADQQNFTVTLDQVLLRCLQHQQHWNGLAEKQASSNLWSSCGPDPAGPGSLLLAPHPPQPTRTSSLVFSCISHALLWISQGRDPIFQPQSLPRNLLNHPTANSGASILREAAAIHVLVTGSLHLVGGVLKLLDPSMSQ

Dihydrofolate reductase = biological target: T2, Dihydrofolate reductase (Mus musculus, UniProt P00375); experiment: biochemical
T2 sequence (P00375 whole entry): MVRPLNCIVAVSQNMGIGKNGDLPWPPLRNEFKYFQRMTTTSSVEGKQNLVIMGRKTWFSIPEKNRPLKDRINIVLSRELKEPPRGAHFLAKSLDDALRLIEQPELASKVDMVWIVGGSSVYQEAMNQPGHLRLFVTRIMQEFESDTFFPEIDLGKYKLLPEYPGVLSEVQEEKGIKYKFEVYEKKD
Description: Compound was tested for its ability to inhibit purified dihydrofolate reductase(DHFR) from L1210/R81 cells

L1210 = experiment: Compound was tested for its ability to inhibit growth of L1210 mouse leukemia cells; format: functional, cell-based
[2] = biological target: T3, Folylpolyglutamate synthase, mitochondrial (Mus musculus) (UniProt P48760); experiment: Compound (500 uM folate
T3 sequence (whole entry): T1 sequence (P48760 whole entry)

| Compound | IC50 (L1210 ( R81)) [nM] | Ki [1] [nM] | IC50 (Dihydrofolate reductase) [nM] | IC50 (L1210) [nM] | inhibition [2] [%] |
| --- | --- | --- | --- | --- | --- |
| CN(Cc1cnc2nc(N)nc(N)c2n1)c1ccc(C(=O)N[C@@H](CCC(=O)O)C(=O)O)cc1 [METHOTREXATE] | 220000 | – | – | – | – |
| Nc1nc(N)c2nc(CNc3ccc(C(=O)N[C@@H](CCC(=O)O)C(=O)O)cc3)cnc2n1 [AMINOPTERIN] | 84000 | – | – | – | – |
| CN(Cc1cnc2nc(N)nc(N)c2n1)c1ccc(C(=O)NC(CCCCN)C(=O)O)cc1 (stereo unspecified) | 220000 | – | 65 | 400 | < 10 |
| CN(Cc1cnc2nc(N)nc(N)c2n1)c1ccc(C(=O)NC(CN)C(=O)O)cc1 (stereo unspecified) | 405000 | – | 180 | 440 | < 10 |

Further compounds by falling IC50 (L1210 ( R81)), results first:

| IC50 (L1210 ( R81)) [nM] | Ki [1] [nM] | IC50 (Dihydrofolate reductase) [nM] | IC50 (L1210) [nM] | inhibition [2] [%] | Compound |
| --- | --- | --- | --- | --- | --- |
| 290000 | – | 120 | 2420 | < 10 | CN(Cc1cnc2nc(N)nc(N)c2n1)c1ccc(C(=O)NC(CCN)C(=O)O)cc1 (stereo unspecified) |
| 86000 | 20400 | 160 | 1300 | – | CN(Cc1cnc2nc(N)nc(N)c2n1)c1ccc(C(=O)NC(CCCN)C(=O)O)cc1 (stereo unspecified) |
| 32000 | 150 | – | 1300 | – | NCCCC(NC(=O)c1ccc(NCc2cnc3nc(N)nc(N)c3n2)cc1)C(=O)O (stereo unspecified) |
